According to PMC2174402 (Environmental Health Perspectives, 2007):
Several values for one entry are separate records, joined by “and”; a condition that tells them apart may be missing. Equal entries are not always repeated. Where two headings read alike, the source gives them in different places. Marks after values point to notes of the source that are not given here.

Tests used:
[1] = target: aryl hydrocarbon receptor (AhR) (Mus musculus, UniProt P30561); assay: AhR-CALUX
aromatase (CYP19) = target: T1, aromatase (CYP19) (Homo sapiens, UniProt P11511); assay: Aromatase activity in JEG-3 choriocarcinoma cells; format: cell-based; conditions: for LOEC, aromatase (inhibited activity) / MOEC, aromatase (inhibited activity) / concentration (range) of significant aromatase inhibition: 18 hr exposure; for Maximum % (maximum down-regulation / maximum inhibition, MI), aromatase: control 10 nM 4-AD set to 100%, at the MOEC
T1 sequence (P11511 1-503): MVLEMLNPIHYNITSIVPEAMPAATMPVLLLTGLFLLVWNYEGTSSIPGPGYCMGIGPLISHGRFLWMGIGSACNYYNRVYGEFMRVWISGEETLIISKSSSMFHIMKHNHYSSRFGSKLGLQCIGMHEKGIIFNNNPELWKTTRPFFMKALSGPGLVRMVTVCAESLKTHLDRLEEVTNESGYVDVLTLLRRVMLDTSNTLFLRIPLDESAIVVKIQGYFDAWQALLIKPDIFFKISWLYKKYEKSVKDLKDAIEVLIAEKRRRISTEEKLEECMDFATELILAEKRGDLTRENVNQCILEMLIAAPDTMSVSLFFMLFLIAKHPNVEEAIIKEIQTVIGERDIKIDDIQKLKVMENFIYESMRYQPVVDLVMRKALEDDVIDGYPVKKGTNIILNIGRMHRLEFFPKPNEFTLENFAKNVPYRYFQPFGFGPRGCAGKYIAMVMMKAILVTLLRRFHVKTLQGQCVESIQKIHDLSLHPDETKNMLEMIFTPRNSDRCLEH

[2] = target: T2, human androgen receptor (AR) (Homo sapiens, UniProt P10275); assay: cell-based; format: cell-based
T2 sequence (P10275 1-920): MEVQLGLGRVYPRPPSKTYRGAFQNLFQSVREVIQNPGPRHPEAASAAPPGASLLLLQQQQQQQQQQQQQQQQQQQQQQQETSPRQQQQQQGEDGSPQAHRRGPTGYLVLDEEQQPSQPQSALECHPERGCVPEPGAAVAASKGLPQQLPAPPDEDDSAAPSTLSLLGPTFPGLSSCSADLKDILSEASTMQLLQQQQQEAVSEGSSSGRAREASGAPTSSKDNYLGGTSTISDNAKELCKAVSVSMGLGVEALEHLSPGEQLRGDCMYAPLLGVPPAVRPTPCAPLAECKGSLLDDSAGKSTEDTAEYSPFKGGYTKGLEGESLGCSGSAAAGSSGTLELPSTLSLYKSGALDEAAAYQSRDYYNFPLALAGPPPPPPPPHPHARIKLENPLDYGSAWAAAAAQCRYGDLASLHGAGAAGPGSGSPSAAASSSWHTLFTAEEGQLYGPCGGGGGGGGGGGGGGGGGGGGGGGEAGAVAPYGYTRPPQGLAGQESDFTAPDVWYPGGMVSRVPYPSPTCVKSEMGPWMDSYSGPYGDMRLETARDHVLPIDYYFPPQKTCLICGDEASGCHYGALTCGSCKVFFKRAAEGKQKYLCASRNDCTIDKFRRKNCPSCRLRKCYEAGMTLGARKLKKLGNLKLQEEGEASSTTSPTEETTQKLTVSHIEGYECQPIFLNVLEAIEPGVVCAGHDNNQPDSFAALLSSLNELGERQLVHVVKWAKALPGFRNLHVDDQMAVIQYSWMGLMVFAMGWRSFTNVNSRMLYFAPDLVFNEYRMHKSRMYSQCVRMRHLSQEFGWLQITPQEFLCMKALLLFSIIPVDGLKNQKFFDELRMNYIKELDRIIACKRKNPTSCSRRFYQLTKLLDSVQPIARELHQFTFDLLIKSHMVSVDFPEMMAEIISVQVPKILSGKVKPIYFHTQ

CHO cells = assay: Cytotoxicity in the AR assay; format: cell-based, Chinese hamster; conditions: for Cytotox (M), AR assay: pSVAR13
[3] = target: T3, human estrogen receptor (ER) (Homo sapiens, UniProt P03372); assay: cell-based; format: cell-based; conditions: for LOEC (lowest effect concentration), ER / MOEC (maximal effect concentration), ER: 24 hr
T3 sequence (P03372 1-595): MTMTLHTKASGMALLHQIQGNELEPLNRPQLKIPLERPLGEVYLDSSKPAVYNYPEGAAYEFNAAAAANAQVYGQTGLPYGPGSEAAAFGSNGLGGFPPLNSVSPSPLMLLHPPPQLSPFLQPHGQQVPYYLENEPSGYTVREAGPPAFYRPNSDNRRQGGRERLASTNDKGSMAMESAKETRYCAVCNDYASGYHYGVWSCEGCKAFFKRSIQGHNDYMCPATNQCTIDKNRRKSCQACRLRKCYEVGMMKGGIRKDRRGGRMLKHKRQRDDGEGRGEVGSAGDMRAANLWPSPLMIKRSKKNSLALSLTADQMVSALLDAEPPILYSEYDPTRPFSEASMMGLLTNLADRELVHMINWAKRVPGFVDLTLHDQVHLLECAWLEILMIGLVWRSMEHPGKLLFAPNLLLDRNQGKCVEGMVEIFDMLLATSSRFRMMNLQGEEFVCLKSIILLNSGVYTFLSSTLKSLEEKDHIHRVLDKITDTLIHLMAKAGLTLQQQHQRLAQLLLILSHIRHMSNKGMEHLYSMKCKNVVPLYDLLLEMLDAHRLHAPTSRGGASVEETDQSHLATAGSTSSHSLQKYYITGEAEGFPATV

Hepa1.12cR cells = assay: Cell cytotoxicity / proliferation for the AhR-CALUX assay
JEG-3 cells = assay: Cell cytotoxicity for the aromatase assay; format: cell-based, human
[4] = chemical alone, Hepa1.12cR cells
[5] = co-exposure with 0.1 nM R1881, CHO cells

Sequence of aryl hydrocarbon receptor (AhR) (P30561 10-805 limits assumed): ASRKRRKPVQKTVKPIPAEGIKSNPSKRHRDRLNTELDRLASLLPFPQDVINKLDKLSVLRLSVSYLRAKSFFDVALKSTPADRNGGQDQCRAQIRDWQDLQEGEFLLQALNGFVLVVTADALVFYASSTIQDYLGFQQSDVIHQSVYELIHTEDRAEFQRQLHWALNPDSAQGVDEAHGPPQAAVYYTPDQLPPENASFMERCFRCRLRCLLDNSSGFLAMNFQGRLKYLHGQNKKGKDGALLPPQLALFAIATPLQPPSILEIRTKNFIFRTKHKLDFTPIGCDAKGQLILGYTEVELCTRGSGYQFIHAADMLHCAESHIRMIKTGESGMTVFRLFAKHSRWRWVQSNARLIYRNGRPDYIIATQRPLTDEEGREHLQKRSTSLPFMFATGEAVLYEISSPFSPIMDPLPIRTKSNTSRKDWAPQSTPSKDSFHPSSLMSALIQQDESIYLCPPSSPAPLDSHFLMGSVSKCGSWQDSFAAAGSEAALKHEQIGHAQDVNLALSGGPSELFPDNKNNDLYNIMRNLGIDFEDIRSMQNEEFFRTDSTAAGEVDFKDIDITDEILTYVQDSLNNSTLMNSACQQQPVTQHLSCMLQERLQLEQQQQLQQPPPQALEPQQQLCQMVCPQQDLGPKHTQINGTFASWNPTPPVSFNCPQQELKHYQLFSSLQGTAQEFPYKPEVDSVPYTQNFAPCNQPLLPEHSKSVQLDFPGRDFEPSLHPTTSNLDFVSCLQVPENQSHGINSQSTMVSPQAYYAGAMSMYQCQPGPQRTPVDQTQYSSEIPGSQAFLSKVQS
Sequence of aryl hydrocarbon receptor (AhR) (P53762 whole entry partner): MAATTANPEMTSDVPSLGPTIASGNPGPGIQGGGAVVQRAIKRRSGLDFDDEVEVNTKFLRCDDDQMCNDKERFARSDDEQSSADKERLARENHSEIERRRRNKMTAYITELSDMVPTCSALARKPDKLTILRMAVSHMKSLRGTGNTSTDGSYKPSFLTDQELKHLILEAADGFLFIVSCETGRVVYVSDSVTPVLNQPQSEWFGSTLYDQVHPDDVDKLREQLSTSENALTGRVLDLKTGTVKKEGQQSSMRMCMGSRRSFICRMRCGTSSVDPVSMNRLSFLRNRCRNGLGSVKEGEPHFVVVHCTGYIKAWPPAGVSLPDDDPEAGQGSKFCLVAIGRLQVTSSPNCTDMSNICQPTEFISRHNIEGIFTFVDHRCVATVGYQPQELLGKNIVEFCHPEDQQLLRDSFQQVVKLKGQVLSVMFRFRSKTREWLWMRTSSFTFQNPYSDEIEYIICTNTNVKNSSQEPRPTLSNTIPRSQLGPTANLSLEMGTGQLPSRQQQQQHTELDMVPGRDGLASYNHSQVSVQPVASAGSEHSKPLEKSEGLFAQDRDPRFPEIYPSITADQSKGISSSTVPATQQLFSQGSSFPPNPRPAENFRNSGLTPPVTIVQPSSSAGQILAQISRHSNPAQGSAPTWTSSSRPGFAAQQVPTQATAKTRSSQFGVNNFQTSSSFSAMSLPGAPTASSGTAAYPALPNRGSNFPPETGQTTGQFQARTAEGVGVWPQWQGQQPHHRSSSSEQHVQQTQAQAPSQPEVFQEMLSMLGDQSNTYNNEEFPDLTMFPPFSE

Structure (SMILES)	LOEC, AhR (increased activity) [1, 4] [nM]	LOEC, aromatase (inhibited activity) (aromatase (CYP19); JEG-3 cells) [nM]	MOEC, aromatase (inhibited activity) (aromatase (CYP19); JEG-3 cells) [µM]	Maximum % (maximum down-regulation / maximum inhibition, MI), aromatase (aromatase (CYP19)) [%]	concentrations of cytotoxicity, AR assay (CHO cells) [µM]	Cytotox (M), AR assay (CHO cells) [M]	LOEC (lowest effect concentration), ER ([3]; chemical alone, MVLN cells) [nM]	MOEC (maximal effect concentration), ER ([3]; chemical alone, MVLN cells) [µM]	concentration (range) of significant aromatase inhibition (aromatase (CYP19); JEG-3 cells)	Cytotox (M), AhR assay (Hepa1.12cR cells)	Cytotox (M), ER assay (MVLN cells) [M]	also measured
Clc1cc2c(cc1Cl)Oc1cc(Cl)c(Cl)cc1O2 [TCDD, 2,3,7,8-tetrachlorodibenzo-p-dioxin, reference compound]	0.002	–	–	–	–	–	–	–	–	–	–	AhR-CALUX activity relative to solvent control ([1]; 60 pM TCDD alone, 0.1% DMSO set to 1, mean ± SD): 14.84 ± 6.26 and 13.89 ± 7.32; MOEC, AhR (increased activity) [1, 4]: 10 nM; REP (relative potency), AhR ([1]; relative to TCDD): 1
C[C@]12CCC(=O)C(O)=C1CC[C@@H]1[C@@H]2CC[C@]2(C)C(=O)CC[C@@H]12 [4-AOD, 4-androsten-4-ol-3,17-dione, reference compound]	–	1	100	100	–	–	–	–	–	–	–	EC50 (aromatase (CYP19)): 6 nM; IC50 (aromatase (CYP19)): 6 nM; EC100 of aromatase inhibitor control (aromatase (CYP19); JEG-3 cells): 10 µM; REP (relative potency), aromatase (aromatase (CYP19); REP-aromatase = LOEC 4-AOD/LOEC test compound): 1
CC(C)(c1ccc(O)cc1)c1ccc(O)cc1 [BPA, Bisphenol A]	–	100000	100	59	> 40	> 4e-05	100	10	10^−4 M	> 10^−4 M	–	IC50 [2]: 1000 nM; concentration range of significant antiandrogenic effect ([2]; co-exposure with 0.1 nM R1881): 0.60 to 20 µM; LOEC, AR (inhibited activity) [2, 5]: 600 nM; MOEC, AR (inhibited activity) [2, 5]: 20 µM; Maximum % (maximum down-regulation / maximum inhibition, MI), AR ([2]; control inducer 0.1 nM R1881 set to 100%): 90%; concentration of decreased TCDD-induced AhR activity [1]: 10^−4 M; concentration (range) of decreased AhR activity, alone ([1]; chemical alone): 5 × 10^−5 to 10^−4 M; LOEC, AhR (inhibited activity) ([1]; inhibited activity): 5 × 10^−5 ^d M; response on co-treatment with 25 pM E2 at 50 μM [3]: significant decreased response; concentration range of ER-mediated (estrogenic) response ([3]; chemical alone, MVLN cells): 10^−8 to 5 × 10^−5 M
CCCCCCCCc1ccc(O)cc1 [nOP, 4-n-octylphenol]	–	–	–	–	–	> 2e-05	–	–	–	> 10^−4 M	5e-05	Cytotox (M), aromatase assay (JEG-3 cells): 10^−4 M
CCCCCCCCCc1ccc(O)cc1 [nNP, 4-n-nonylphenol]	50	1	10	71	> 40	> 4e-05	10	10	10^−9–10^−5 M	–	2.5e-05	concentration of decreased TCDD-induced AhR activity ([1]; co-treatment with TCDD-EC50 (60 pM)): 10^−4 M; concentration at which cytotoxicity was observed, ER assay (MVLN cells): 25 µM; EC50 [3]: 8900 nM; concentration giving further increase of the 25 pM E2-induced activity level [3]: 5 × 10^−6 M
